Test results from publication PMC6478823, “A suite of phenotypic assays to ensure pipeline diversity when prioritizing drug-like Cryptosporidium growth inhibitors” (Nature Communications, 2019).
Where two headings read alike, the source gives them in different places.

Key:
C. parvum [1] = assay type: cell-based, Cryptosporidium parvum; conditions: compound at EC90; for Invasion Assay: Mean % Inhibition (parasites), Average: average of replicates; for effect on host cell invasion / parasitophorous vacuole formation: result in words; for Invasion Assay: Mean % Inhibition (parasites), Replicate 1a: single biological replicate 1; for Invasion Assay: Mean % Inhibition (parasites), Replicate 2a: single biological replicate 2; for Invasion Assay: Mean % Inhibition (parasites), Replicate 3a: single biological replicate 3; for Invasion Assay: Mean % Inhibition (parasites), Replicate 4a: single biological replicate 4; for Sporozoite invasion: yes/no grouping by phenotypic assay result
Experimental: The first step in infection is host cell invasion, which involves a complex process encompassing oocyst excystation, parasite motility, adhesion, and parasitophorous vacuole formation (Fig. 2a). Our strategy to assay for compounds affecting invasion was simply to expose C. parvum to compounds immediately after triggering excystation and throughout the invasion process, and then enumerate the parasite vacuoles after 3 h, prior to allowing the parasites to replicate (summarized in Fig. 2b).
Fig. 2 Invasion Assay. a Overview of life cycle stage investigated during the invasion assay. Representative TEM images of a C. parvum oocyst and HCT-8 cell shortly after infection (Scale bar = 500 nm). b Schematic of experimental design. […] Each point represents the mean and SD of at least two biological replicates with four technical replicates per experiment.
C. parvum invasion inhibition was measured by modifying the 48 h growth inhibition assay described above. […] In parallel, Iowa strain oocysts were excysted. […] Assay plates were incubated at 37 °C and 5% CO2 for 3 h.

C. parvum [2] = test: DNA replication assay (EdU incorporation); assay type: cell-based, Cryptosporidium parvum; conditions: compound at EC90; for DNA Synthesis Assay: Mean % Inhibition of EdU-labeling (normalized to parasite numbers), Average: average of replicates; for DNA Synthesis Assay: Mean % Inhibition of EdU-labeling (normalized to parasite numbers), Replicate 1: single replicate 1; for DNA Synthesis Assay: Mean % Inhibition of EdU-labeling (normalized to parasite numbers), Replicate 2: single replicate 2; for DNA Synthesis Assay: Mean % Inhibition of EdU-labeling (normalized to parasite numbers), Replicate 3: single replicate 3; for DNA synthesis: yes/no grouping by phenotypic assay result
From the text: Following cell invasion, Cryptosporidium trophozoites grow and multiply to give rise to multinucleated type I meronts (Fig. 3a). The thymidine analog 5-ethynyl-2′-deoxyuridine (EdU) is efficiently incorporated into newly synthesized DNA, and can be detected using click chemistry. We used EdU to measure parasite intracellular DNA replication, as a surrogate for the more complex phenotype of intracellular growth and division. The approach for differentially labeling newly synthesized parasite DNA compared to host cell DNA was to take advantage of the fact that C. parvum replicates more quickly than the nearly confluent host cells. Thus, by adding EdU shortly before egress, it was possible to preferentially label replicating parasites (Fig. 3b, c). DNA staining with Hoechst labeled all of the host and parasite DNA, making it challenging to visualize and quantify parasite DNA. A simple DNA stain would also not distinguish pre-existing DNA from newly synthesized DNA (Fig. 3c). In contrast, EdU labeling only occurred with incorporation into newly synthesized DNA. Incorporated EdU was then easily stained for immunofluorescence and labeled parasites were quantified using high-content microscopy and an NIH ImageJ macro (Fig. 3c, DMSO condition). The […] hydroxyurea (10 mM), a known inhibitor of DNA replication, was used as a positive control for assay validation. […] Compounds with activity in this assay cannot be concluded to specifically target DNA replication, which is a complex phenotype.
Confluent HCT-8 cell monolayers in glass bottom plates were infected with C. parvum, and compounds were added at EC90 following invasion. At 9 h post-infection, 10 µM EdU was added, followed by incubation for another 2 h, and then washing, fixing, and staining for microscopy. […] 40 × dry objective (NA = 0.7); scale = 5 µm. Arrows indicate selected parasites with EdU-labeled DNA. d Quantification of EdU incorporation. […] Data are mean and SD of 2–5 biological replicates.
After incubation of cells with EdU for 2 h, cells were washed 3 times with PBS-D-gal and then fixed with PBS containing 4% PFA. Cells were then permeabilized and stained for EdU using the Click-iT® assay kit (Thermo Fisher Scientific, catalog# C10340) as per the manufacturer’s instructions. Cells were then imaged by focusing on parasites (note that the host cell nuclei are in a different focal plane) using a 40 × dry objective (0.7 NA) and EdU, and lectin numbers quantified using ImageJ software and the custom macro in Supplementary Method 1.

C. parvum [3] = test: Egress, motility, reinvasion assay (PV ratio); conditions: compound at EC90; for Egress and Reinvasion Assay: Mean PV ratios (19.5h:6h), Average: average of replicates; for Egress and Reinvasion Assay: Mean PV ratios (19.5h:6h), Replicate 1a: single replicate 1; for Egress and Reinvasion Assay: Mean PV ratios (19.5h:6h), Replicate 2a: single replicate 2; for Egress and Reinvasion Assay: Mean PV ratios (19.5h:6h), Replicate 3a: single replicate 3; for Egress and Reinvasion Assay: Mean PV ratios (19.5h:6h), Replicate 4a: single replicate 4
[4] = test system: C. parvum DMC1 expression; test: Sexual differentiation assay (DMC1 expression); assay type: cell-based, Cryptosporidium parvum; conditions: compound at asexual EC90, 48-72 h; for Asexual to sexual differentiation: Mean % DMC1 inhibition (normalized to host nuclei), Average: average of replicates; for Asexual to sexual differentiation: Mean % DMC1 inhibition (normalized to host nuclei), Replicate 1a: single replicate 1; for Asexual to sexual differentiation: Mean % DMC1 inhibition (normalized to host nuclei), Replicate 2a: single replicate 2; for Asexual to sexual differentiation: Mean % DMC1 inhibition (normalized to host nuclei), Replicate 3a: single replicate 3
From the text: We utilized DMC1 as a marker of C. parvum sexual development, and used the anti-DMC1 monoclonal antibody to develop a moderate-throughput high-content microscopy assay for characterizing anticryptosporidial compounds (Fig. 6a). […] Therefore, in order to enable numerical comparison of the ability of compounds to block sexual development with moderate throughput, we adopted a strategy of reporting the percent inhibition of DMC1 expression by the previously determined EC90 of each compound in the standard asexual development assay (Fig. 6c and Supplementary Table 2).
Fig. 6 Assay to measure asexual-to-sexual-stage conversion. a Schematic of the experimental approach. […] For b and c the mean and SD combined from at least two biological replicates with four technical replicates per experiment are shown. […] At given time points post-infection, infected cells were washed 3 times with PBS containing 111 mM of D-galactose, fixed for 15 min at room temperature with 4% paraformaldehyde in PBS, and permeabilized with 0.25% triton X-100 in PBS for 10 min at 37 °C. Cells were then washed 3 times with PBS and blocked at least overnight at 4 °C with 1% BSA in PBS (blocking buffer). Cells were stained with monoclonal antibody (1H10G7), either neat culture supernatant or 12.8 µg/mL of purified IgG in blocking buffer for 1 h at 37 °C, followed by 2 washes with PBS. Cells were then co-stained with a 1:500 dilution (4 µg/mL) of Alexa Fluor 568 goat anti-mouse IgG (Invitrogen, catalog# A-11004) and 1.33 µg/mL fluorescein-labeled Vicia villosa lectin (Vector Laboratories, catalog# FL-1231) diluted in blocking buffer for 1 h at 37 °C. Stains were then removed and 0.09 mM Hoechst 33258 (AnaSpec, catalog# AS-83219) also diluted in blocking buffer was added for another 15 min at 37 °C, followed by 2 PBS washes and imaging on a Nikon Eclipse Ti2000 epifluorescence microscope run with NIS-Elements Advanced Research software (Nikon, USA) and equipped with an EXi blue fluorescent microscopy camera (QImaging, Canada). For enumerating parasites, tiled 2 × 2 images with 15% overlapping edges were taken using a 40 × dry objective (0.7 NA), and for finer details, Z stack images were acquired using a 60 × oil objective (1.4 NA). Lectin positive cells in focus were first counted, followed by DMC1.
For compound dose-response studies, the same assay was performed in 384-well plates and imaged using a 20 × dry objective (NA = 0.45). Tiled 4 × 4 to 6 × 6 images were taken. Images were analyzed using ImageJ software and the custom macro provided in Supplementary Method 2.

Structure (SMILES)	Invasion Assay: Mean % Inhibition (parasites), Average (C. parvum [1])	Invasion Assay: Mean % Inhibition (parasites), Replicate 1a (C. parvum [1])	Invasion Assay: Mean % Inhibition (parasites), Replicate 2a (C. parvum [1])	Invasion Assay: Mean % Inhibition (parasites), Replicate 3a (C. parvum [1])	Invasion Assay: Mean % Inhibition (parasites), Replicate 4a (C. parvum [1])	DNA Synthesis Assay: Mean % Inhibition of EdU-labeling (normalized to parasite numbers), Average (C. parvum [2])	DNA Synthesis Assay: Mean % Inhibition of EdU-labeling (normalized to parasite numbers), Replicate 1 (C. parvum [2])	DNA Synthesis Assay: Mean % Inhibition of EdU-labeling (normalized to parasite numbers), Replicate 2 (C. parvum [2])	DNA Synthesis Assay: Mean % Inhibition of EdU-labeling (normalized to parasite numbers), Replicate 3 (C. parvum [2])	Egress and Reinvasion Assay: Mean PV ratios (19.5h:6h), Average (C. parvum [3])	Egress and Reinvasion Assay: Mean PV ratios (19.5h:6h), Replicate 1a (C. parvum [3])	Egress and Reinvasion Assay: Mean PV ratios (19.5h:6h), Replicate 2a (C. parvum [3])	Egress and Reinvasion Assay: Mean PV ratios (19.5h:6h), Replicate 3a (C. parvum [3])	Egress and Reinvasion Assay: Mean PV ratios (19.5h:6h), Replicate 4a (C. parvum [3])	Asexual to sexual differentiation: Mean % DMC1 inhibition (normalized to host nuclei), Average [4]	Asexual to sexual differentiation: Mean % DMC1 inhibition (normalized to host nuclei), Replicate 1a [4]	Asexual to sexual differentiation: Mean % DMC1 inhibition (normalized to host nuclei), Replicate 2a [4]	Sporozoite invasion (C. parvum [1])	DNA synthesis (C. parvum [2])	Asexual to sexual differentiation: Mean % DMC1 inhibition (normalized to host nuclei), Replicate 3a [4]	further results
CN(C)C[C@H](O)Cn1c2ccc(Br)cc2c2cc(Br)ccc21 (racemic) [Wiskostatin]	88.58%	90%	92%	82%	90%	36.39%	67.16%	42.34%	31.25%	1.04	1.34	0.98	0.80	1.04	45.76%	43.95%	47.58%	–	–	–	effect on host cell invasion / parasitophorous vacuole formation (C. parvum [1]): inhibited parasitophorous vacuole formation; effect on host cell invasion / parasitophorous vacuole formation (C. parvum [1]; listed as wiskostatin): active; effect on C. parvum DNA replication / EdU incorporation (C. parvum [2]; result in words): active; DNA Synthesis Assay: Mean % Inhibition of EdU-labeling (normalized to parasite numbers), Replicate 4 (C. parvum [2]; single replicate 4): 4.83%
c1ccc(CNc2nc(NCc3ccccc3)c3ccccc3n2)cc1 [B-23]	83.80%	84%	83%	–	–	1.59%	-16.14%	17.17%	3.74%	1.55	1.73	1.36	–	–	-6.40%	-17.01%	2.19%	yes	no	-4.38%	–
[H]/N=C(/NCCCCC)N/N=C/c1c[nH]c2ccc(OC)cc12 [Tegaserod]	13.93%	26%	2%	–	–	-6.72%	-11.69%	-25.63%	17.15%	1.01	0.96	1.06	–	–	12.05%	41.94%	-17.83%	no	no	–	–
CSc1ccccc1C(=O)Nc1nc(-c2ccccn2)cs1 [MMV001246]	-7.41%	-15%	0.521%	–	–	72.11%	57.69%	70.62%	88.02%	0.43	0.60	0.25	–	–	45.66%	48.08%	43.24%	–	–	–	–
Cc1cccc(-n2ncc3c(O)nc(-n4nc(C)cc4NC(=O)c4cc5ccccc5o4)nc32)c1 [C-1]	-10.80%	-29%	-22%	9%	-0.416%	91.44%	100%	100%	74.32%	0.80	0.80	1.08	0.56	0.76	30.35%	26.21%	37.12%	–	–	27.73%	–
